Source: patent publication US11566039B2, “Lincosamide antibiotics and uses thereof” (President and Fellows of Harvard College, priority 2017, dated 2023)
Values after ≈ are worked out from the molar mass of the structure shown. Like-named read-outs stand apart in the source and are kept apart here.

Experiments:
Type in all cases: cell-based
E. faecalis ATCC 29212 = test: MIC against E. faecalis ATCC 29212; conditions: Enterococcus faecalis, ATCC29212, E. faecalis ATCC 29212; read-out: MIC
S. aureus ATCC 29213 = test: MIC against S. aureus ATCC 29213
E. coli ATCC 25922 = test: MIC against E. coli ATCC 25922; conditions: Escherichia coli, ATCC25922, read-out: MIC
S. aureus BAA 977 iErmA = test: MIC against S. aureus BAA 977 iErmA; conditions: Staphylococcus aureus, BAA977
K. pneumoniae ATCC 10031 = test: MIC against K. pneumoniae ATCC 10031; conditions: Klebsiella pneumoniae, ATCC10031, read-out: MIC
S. pyogenes ATCC 19615 = test: MIC against S. pyogenes ATCC 19615
S. pneumoniae ATCC 49619 = test: MIC against S. pneumoniae ATCC 49619
E. coli MP-9 ΔTolC = test: MIC against E. coli MP-9 ΔTolC; conditions: Escherichia coli
H. influenzae ATCC 49247 = test: MIC against H. influenzae ATCC 49247; conditions: Haemophilus influenzae, ATCC49247, H. influenzae ATCC 49247; read-out: MIC
[1] = tested on: E. coli MP-74 LptD mutant; test: MIC against E. coli MP-74 LptD mutant
C. difficile BAA 1805 = test: MIC against C. difficile BAA 1805; conditions: Clostridioides difficile, BAA1805
[2] = tested on: S. aureus MP-549 msr(a) USA 300; test: MIC against S. aureus MP-549 msr(a) USA 300
[3] = Staphylococcus aureus, ATCC29213, S. aureus ATCC 29213, read-out: MIC
[4] = Streptococcus pyogenes, ATCC19615, S. pyogenes ATCC 19615, read-out: MIC
[5] = Streptococcus pneumoniae, ATCC49619, S. pneumoniae ATCC 49619, read-out: MIC
[6] = Staphylococcus aureus, USA300, S. aureus MP-549 msr(a) USA 300

SMILES	MIC (E. faecalis ATCC 29212)	MIC (S. aureus ATCC 29213; [3])	MIC (E. coli ATCC 25922)	MIC (S. aureus BAA 977 iErmA)	MIC (K. pneumoniae ATCC 10031)	MIC (S. pyogenes ATCC 19615; [4])	MIC (S. pneumoniae ATCC 49619; [5])	MIC (E. coli MP-9 ΔTolC)	MIC (H. influenzae ATCC 49247)	MIC ([1]; Escherichia coli)	MIC (C. difficile BAA 1805)	MIC [2, 6]	MIC (S. aureus ATCC 29213; S. aureus ATCC 29213)	MIC [1]	MIC (S. pyogenes ATCC 19615; S. pyogenes ATCC 19615)	MIC (S. pneumoniae ATCC 49619; S. pneumoniae ATCC 49619)	MIC ([2]; S. aureus MP-549 msr(a) USA 300)
CCC[C@@H]1C[C@@H](C(=O)N[C@H]([C@H](C)NC(=O)CCCN)[C@H]2OC(SC)[C@H](O)C(O)C2O)N(C)C1 (some centres unmarked) [FSA-215052]	> 64 µg/mL	> 64 µg/mL	> 64 µg/mL	> 64 µg/mL	> 64 µg/mL	32 µg/mL (≈ 65.2 µM)	> 64 µg/mL	> 64 µg/mL	–	–	–	–	–	–	–	–	–
CCC[C@@H]1C[C@@H](C(=O)N[C@@H]([C@H]2OC(SC)[C@H](O)C(O)C2O)[C@H](C)N(C)C)N(C)C1 (some centres unmarked) [FSA-215070]	> 64 µg/mL	64 µg/mL (≈ 148 µM)	> 64 µg/mL	64 µg/mL (≈ 148 µM)	> 64 µg/mL	32 µg/mL (≈ 73.8 µM)	16 µg/mL (≈ 36.9 µM)	> 64 µg/mL	> 64 µg/mL	> 64 µg/mL	> 64 µg/mL	64 µg/mL (≈ 148 µM)	–	–	–	–	–
CCC[C@@H]1C[C@@H](C(=O)N[C@@H]([C@H]2OC(SC)[C@H](O)C(O)C2O)[C@H](C)n2ccnc2)N(C)C1 (some centres unmarked) [FSA-215064]	> 64 µg/mL	64 µg/mL (≈ 140 µM)	> 64 µg/mL	> 64 µg/mL	> 64 µg/mL	8 µg/mL (≈ 17.5 µM)	16 µg/mL (≈ 35 µM)	> 64 µg/mL	–	> 64 µg/mL	–	–	–	–	–	–	–
CCC[C@@H]1C[C@@H](C(=O)N[C@H]([C@H](C)NC(=N)N)[C@H]2OC(SC)[C@H](O)C(O)C2O)N(C)C1 (some centres unmarked) [FSA-215059]	> 64 µg/mL	32 µg/mL (≈ 71.5 µM)	> 64 µg/mL	32 µg/mL (≈ 71.5 µM)	> 64 µg/mL	4 µg/mL (≈ 8.94 µM)	8 µg/mL (≈ 17.9 µM)	> 64 µg/mL	–	> 64 µg/mL	–	–	–	–	–	–	–
CCC[C@@H]1C[C@@H](C(=O)N[C@H]([C@H](C)NCc2ccc(F)cc2)[C@H]2OC(SC)[C@H](O)C(O)C2O)N(C)C1 (some centres unmarked) [FSA-215025d]	> 64 µg/mL	4 µg/mL (≈ 7.79 µM)	> 64 µg/mL	4 µg/mL (≈ 7.79 µM)	> 64 µg/mL	1 µg/mL (≈ 1.95 µM)	2 µg/mL (≈ 3.89 µM)	> 64 µg/mL	–	–	–	–	–	–	–	–	–
CCC[C@@H]1C[C@@H](C(=O)N[C@@H]([C@H]2OC(SC)[C@H](O)C(O)C2O)[C@H](C)N(C)Cc2ccccc2[N+](=O)[O-])N(C)C1 (some centres unmarked) [FSA-215081]	> 64 µg/mL	4 µg/mL (≈ 7.21 µM)	> 64 µg/mL	4 µg/mL (≈ 7.21 µM)	> 64 µg/mL	1 µg/mL (≈ 1.8 µM)	2 µg/mL (≈ 3.61 µM)	> 64 µg/mL	> 64 µg/mL	> 64 µg/mL	–	4 µg/mL (≈ 7.21 µM)	–	–	–	–	–
CCC[C@@H]1C[C@@H](C(=O)N[C@H]([C@H](C)N)[C@H]2OC(SC)[C@H](O)C(O)C2O)N(C)C1 (stereo partly drawn) [FSA-215049, 7-(S)-deoxyaminolincomycin]	> 64 µg/mL	64 µg/mL (≈ 158 µM)	> 64 µg/mL	64 µg/mL (≈ 158 µM)	> 64 µg/mL	16 µg/mL (≈ 39.5 µM)	8 µg/mL (≈ 19.7 µM)	> 64 µg/mL	> 64 µg/mL	> 64 µg/mL	> 64 µg/mL	32 µg/mL (≈ 78.9 µM)	–	–	–	–	–
CCC[C@@H]1C[C@@H](C(=O)N[C@@H]([C@H]2OC(SC)[C@H](O)C(O)C2O)C(C)(C)C(C)N=[N+]=[N-])N(C)C1 (single isomer, unassigned) [FSA-217021a]	> 64 µg/mL	–	> 64 µg/mL	–	> 64 µg/mL	–	–	> 64 µg/mL	> 64 µg/mL	–	–	–	4 µg/mL (≈ 8.45 µM)	>64 µg/mL	2 µg/mL (≈ 4.22 µM)	2 µg/mL (≈ 4.22 µM)	4 µg/mL (≈ 8.45 µM)
CCC[C@@H]1C[C@@H](C(=O)N[C@H](COC(=O)Nc2ccccc2)[C@H]2OC(SC)[C@H](O)C(O)C2O)N(C)C1 (some centres unmarked) [FSA-215036]	> 64 µg/mL	> 64 µg/mL	> 64 µg/mL	> 64 µg/mL	> 64 µg/mL	64 µg/mL (≈ 125 µM)	16 µg/mL (≈ 31.3 µM)	> 64 µg/mL	–	–	–	–	–	–	–	–	–
CCC[C@@H]1C[C@@H](C(=O)N[C@H]([C@H]2C=CCC2)[C@H]2OC(SC)[C@H](O)C(O)C2O)N(C)C1 (some centres unmarked) [FSA-217003]	64 µg/mL (≈ 149 µM)	1 µg/mL (≈ 2.33 µM)	> 64 µg/mL	–	> 64 µg/mL	0.5 µg/mL (≈ 1.17 µM)	0.5 µg/mL (≈ 1.17 µM)	> 64 µg/mL	> 64 µg/mL	> 64 µg/mL	–	1 µg/mL (≈ 2.33 µM)	–	–	–	–	–
CCC[C@@H]1C[C@@H](C(=O)N2CCC[C@@H]2[C@H]2OC(SC)[C@H](O)C(O)C2O)N(C)C1 (some centres unmarked) [FSA-216092]	> 64 µg/mL	> 64 µg/mL	> 64 µg/mL	–	> 64 µg/mL	> 64 µg/mL	> 64 µg/mL	> 64 µg/mL	> 64 µg/mL	> 64 µg/mL	–	> 64 µg/mL	–	–	–	–	–
